{"source": "patent US7772180B2", "about": "“Hepatitis C virus inhibitors” (Bristol-Myers Squibb Company, priority 2006, dated 2010)", "key": {"[1]": {"target": "T1, HCV NS3/4A protease complex, BMS strain (UniProt P27958, species not given/STRAIN_BMS)", "T1 construct": "other: BMS strain; said of H77 and J4L6S; fused on or other part: A three-lysine solubilising tail at the C-terminus of NS4A; A His tag is implied by the pET21b vector and Ni-NTA purification; Both are printed for the H77 and J4L6S constructs and apply to BMS by inference", "assay": "FRET peptide assay to monitor HCV NS3/4A proteolytic activity (BMS strain)", "assay_type": "biochemical, Hepatitis C virus (genotype 1a)", "settings": "read-out: IC50 against the NS3/4A BMS strain in the enzyme assay; BMS strain", "summary_of_the_method": "(§1)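 Inhibition measured by real-time fluorescence increase as the protease cleaves RET S1 FRET depsipeptide (2 μM final). Enzyme: >90% pure BMS-strain (1a) NS3/4A at 2-3 nM final, or 300 pM with 50 μg/ml BSA for potent compounds. Buffer: 50 mM HEPES pH 7.5, 0.15 M NaCl, 0.1% Triton, 15% glycerol, 10 mM βME.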", "T1 sequence (P27958 1027-1657, change not shown, one chain of several)": "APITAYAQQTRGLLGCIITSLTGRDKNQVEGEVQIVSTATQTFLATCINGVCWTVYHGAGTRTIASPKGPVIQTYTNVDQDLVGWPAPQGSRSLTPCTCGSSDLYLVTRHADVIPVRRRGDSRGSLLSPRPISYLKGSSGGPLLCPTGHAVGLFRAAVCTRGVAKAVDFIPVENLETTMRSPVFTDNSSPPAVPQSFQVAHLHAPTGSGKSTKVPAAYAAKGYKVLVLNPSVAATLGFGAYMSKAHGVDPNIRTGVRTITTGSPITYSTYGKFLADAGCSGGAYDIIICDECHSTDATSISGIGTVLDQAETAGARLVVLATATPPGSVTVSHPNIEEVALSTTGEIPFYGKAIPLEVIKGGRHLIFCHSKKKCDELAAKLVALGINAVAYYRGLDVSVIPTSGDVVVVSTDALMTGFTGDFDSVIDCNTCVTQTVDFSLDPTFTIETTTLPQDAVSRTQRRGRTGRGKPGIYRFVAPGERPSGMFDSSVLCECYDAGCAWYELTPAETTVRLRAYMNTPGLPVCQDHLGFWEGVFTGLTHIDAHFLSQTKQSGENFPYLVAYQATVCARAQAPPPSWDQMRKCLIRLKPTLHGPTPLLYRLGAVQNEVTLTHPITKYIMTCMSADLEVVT"}, "[2]": {"target": "T2, HCV NS3/4A protease complex, BMS strain (UniProt P27958, species not given/STRAIN_BMS)", "T2 construct": "other: NS3/4A BMS strain; activity range class; numeric values, unit not given; said of H77 and J4L6S; fused on or other part: A three-lysine solubilising tail at the C-terminus of NS4A; A His tag is implied by the pET21b vector and Ni-NTA purification; Both are printed for the H77 and J4L6S constructs and apply to BMS by inference", "assay": "FRET peptide assay to monitor HCV NS3/4A proteolytic activity (BMS strain)", "assay_type": "biochemical, Hepatitis C virus (genotype 1a)", "settings": "read-out: HCV Protease (IC50); NS3/4A BMS strain; activity range class", "summary_of_the_method": "as §1", "T2 sequence (P27958 1027-1657, change not shown, one chain of several)": "as above"}}, "note": "pIC50: −log10 of the molar value. Like-named read-outs stand apart in the source and are kept apart here."}
{"smiles": "C=C[C@@H]1C[C@]1(NC(=O)[C@@H]1C[C@@H](Oc2nc(N(C)C)cc3cc(OC)ccc23)CN1C(=O)C(Nc1cc(C)cc(C)n1)C(C)(C)C)C(=O)NS(=O)(=O)C1CC1", "note": "(single isomer, unassigned) [Compound 18]", "values": [{"measurement": "pIC50", "setting": "[1]", "value": 8.47}, {"measurement": "pIC50", "setting": "[2]", "value": "7.70 to 9.22"}]}
